Patent publication US5665882A, “Pyridyl ethylation of lactams” (Merck & Co., Inc., priority 1996, dated 1997)

System: ADP-stimulated platelets
Test: ADP-stimulated platelet aggregation assay (gel-filtered human platelets)
Assay type: cell-based
Conditions: inhibition of ADP-stimulated platelet aggregation by 50% relative to control; gel-filtered human platelets 2×10^8 per ml, fibrinogen 100 ug/ml, Ca^2+ 1 mM, 10 mM ADP, 37° C.
Excerpt: The activity of these fibrinogen receptor antagonists is illustrated below. One test used to evaluate fibrinogen receptor antagonist activity is based on evaluation of inhibition of ADP-stimulated platelets. Aggregation requires that fibrinogen bind to and occupy the platelet fibrinogen receptor site. Inhibitors of fibrinogen binding inhibit aggregation. In the ADP-stimulated platelet aggregation assay used to determine inhibition associated with these fibrinogen receptor antagonists, human platelets are isolated from fresh blood, collected into acid citrate/dextrose by differential centrifugation followed by gel filtration on Sepharose 2B in divalent ion-free Tyrode's buffer (pH 7.4) containing 2% bovine serum albumin.
Platelet aggregation is measured at 37° C. in a Chronolog aggregometer. The reaction mixture contains gel-filtered human platelets (2×10^8 per ml), fibrinogen (100 micrograms per ml (ug/ml)), Ca^2+ (1 mM), and the fibrinogen receptor antagonists tested. The aggregation is initiated by adding 10 mM ADP 1 minute after the other components are added. The reaction is then allowed to proceed for at least 2 minutes. The extent of inhibition of aggregation is expressed as the percentage of the rate of aggregation observed in the absence of inhibitor. The IC50 is the dose of a particular compound inhibiting aggregation by 50% relative to a control lacking the compound. […]

IC50: 100 µM
SMILES: C[C@H](CC(=O)O)NC(=O)CN1CCC[C@@H](CCC2CCNCC2)C1=O
